In patent US8633315B2, “Substituted hydroxyethyl amine compounds as beta-secretase modulators and methods of use” (Amgen Inc., priority 2007, dated 2014):

Molecular target: BACE1 (Homo sapiens, UniProt P56817)
Assay: In vitro enzymatic BACE FRET (fluorescence resonance energy transfer) assay
Format: biochemical
Experimental: In Vitro Enzymatic BACE FRET (Fluorescence Resonance Energy Transfer) Assay (Enzyme Assay Data in Table 1)
The assay buffer used in this screen is 0.05 M acetate, pH 4.2, 10% DMSO final, 100 uM genapol (which is a nonionic detergent, below its Critical Micelle Concentration). […] The assay is effectively started by the addition of FRET substrate (50 nM) and the combination is incubated for one hour. The FRET assay is terminated with by addition of Tris buffer, which raises the pH to neutrality, and the fluorescence is determined. The FRET substrate is a peptide with commercially available fluorophore and quencher, on opposite sides of the BACE cleavage site. Proteolytic cleavage of the FRET substrate releases quenching of fluorescence (excitation […] and emission […]).

BACE1, sequence (P56817 46-501, species assumed): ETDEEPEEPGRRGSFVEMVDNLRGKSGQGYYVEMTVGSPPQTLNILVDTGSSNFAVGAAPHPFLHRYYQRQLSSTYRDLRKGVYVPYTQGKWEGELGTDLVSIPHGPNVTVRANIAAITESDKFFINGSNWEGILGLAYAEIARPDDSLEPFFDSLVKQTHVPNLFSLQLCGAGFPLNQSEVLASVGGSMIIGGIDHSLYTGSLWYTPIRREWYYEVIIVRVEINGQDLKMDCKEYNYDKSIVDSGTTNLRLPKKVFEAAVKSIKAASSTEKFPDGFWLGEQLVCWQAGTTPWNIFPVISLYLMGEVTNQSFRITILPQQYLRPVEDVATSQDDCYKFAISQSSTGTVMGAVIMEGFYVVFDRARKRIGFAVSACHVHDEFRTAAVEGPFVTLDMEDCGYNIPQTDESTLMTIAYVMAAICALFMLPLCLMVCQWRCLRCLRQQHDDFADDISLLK

IC50 [nM] | SMILES
212 | C=CC[C@H](NC(C)=O)[C@H](O)CN[C@H]1CC2(CCC2)Oc2ccc(CC(C)(C)C)cc21 [Example 33, N-((1S)-1-((1R)-2-(((4S)-6-(2,2-dimethylpropyl)-3,4-dihydrospiro[chromene-2,1′-cyclobutan]-4-yl)amino)-1-hydroxyethyl)-3-buten-1-yl)acetamide]
61 | C=CC[C@H](NC(=O)COC)[C@H](O)CN[C@H]1CC2(CCC2)Oc2ccc(CC(C)(C)C)cc21 [Example 34, N-((1S)-1-((1R)-2-(((4S)-6-(2,2-dimethylpropyl)-3,4-dihydrospiro[chromene-2,1′-cyclobutan]-4-yl)amino)-1-hydroxyethyl)-3-buten-1-yl)-2-(methyloxy)acetamide]
147 | C=CC[C@H](NC(=O)COC)[C@H](O)CNC1CC2(CCC2)Oc2ncc(CC(C)C)cc21 (stereo partly drawn) [Example 39, N-((1S)-1-((1R)-1-hydroxy-2-((6′-(2-methylpropyl)-3′,4′-dihydrospiro[cyclobutane-1,2′-pyrano[2,3-b]pyridin]-4′-yl)amino)ethyl)-3-buten-1-yl)-2-(methyloxy)acetamide]
70 | C=CC[C@H](NC(C)=O)[C@H](O)CN[C@H]1C[C@]2(CC[C@H]2O)Oc2ncc(CC(C)(C)C)cc21 [Example 52, N-((1S)-1-((1R)-2-(((1S,2R,4′S)-6′-(2,2-dimethylpropyl)-2-hydroxy-3′,4′-dihydrospiro[cyclobutane-1,2′-pyrano[2,3-b]pyridin]-4′-yl)amino)-1-hydroxyethyl)-3-buten-1-yl)acetamide]
8220 | C=CC[C@H](NC(C)=O)[C@H](O)CN[C@H]1C[C@@]2(CC[C@@H]2O)Oc2ncc(CC(C)(C)C)cc21 [Example 53, N-((1S)-1-((1R)-2-(((1R,2S,4′S)-6′-(2,2-dimethylpropyl)-2-hydroxy-3′,4′-dihydrospiro[cyclobutane-1,2′-pyrano[2,3-b]pyridin]-4′-yl)amino)-1-hydroxyethyl)-3-buten-1-yl)acetamide]
18600 | CCC[C@H](NC(C)=O)[C@H](O)CN[C@H]1C[C@@]2(CC[C@@H]2O)Oc2ncc(CC(C)(C)C)cc21 [Example 54, N-((1S)-1-((1R)-2-(((1R,2S,4′S)-6′-(2,2-dimethylpropyl)-2-hydroxy-3′,4′-dihydrospiro[cyclobutane-1,2′-pyrano[2,3-b]pyridin]-4′-yl)amino)-1-hydroxyethyl)butyl)acetamide]
21400 | CC(=O)N[C@H]([C@H](O)CN[C@H]1CC2(CCC2)Oc2ncc(CC(C)(C)C)cc21)C(C)(C)C [Example 81, N-((1S)-1-((1R)-2-(((4′S)-6′-(2,2-dimethylpropyl)-3′,4′-dihydrospiro[cyclobutane-1,2′-pyrano[2,3-b]pyridin]-4′-yl)amino)-1-hydroxyethyl)-2,2-dimethylpropyl)acetamide]
84 | C=CC[C@H](NC(=O)[C@H]1CCCO1)[C@H](O)CN[C@H]1CC2(CCC2)Oc2ncc(CC(C)(C)C)cc21 [Example 92, (2R)-N-((1S)-1-((1R)-2-(((4′S)-6′-(2,2-dimethylpropyl)-3′,4′-dihydrospiro[cyclobutane-1,2′-pyrano[2,3-b]pyridin]-4′-yl)amino)-1-hydroxyethyl)-3-buten-1-yl)tetrahydro-2-furancarboxamide]
43 | C=CC[C@H](NC(=O)c1ccno1)[C@H](O)CN[C@H]1CC2(CCC2)Oc2ncc(CC(C)(C)C)cc21 [Example 93, N-((1S)-1-((1R)-2-(((4′S)-6′-(2,2-dimethylpropyl)-3′,4′-dihydrospiro[cyclobutane-1,2′-pyrano[2,3-b]pyridin]-4′-yl)amino)-1-hydroxyethyl)-3-buten-1-yl)-5-isoxazolecarboxamide]
302 | C=CCC(NC(=O)COC)C(O)CNC1CC2(CC(C#N)C2)Oc2ncc(CC(C)(C)C)cc21 [Example 113, N-((1S)-1-((1R)-2-(((1r,3S,4′S)-3-cyano-6′-(2,2-dimethylpropyl)-3′,4′-dihydrospiro[cyclobutane-1,2′-pyrano[2,3-b]pyridin]-4′-yl)amino)-1-hydroxyethyl)-3-buten-1-yl)-2-(methyloxy)acetamide]
